Laboratory results: patent US20060069132A1, “Azolecarboxamide herbicides” (priority 2004, published 2006)

Experiments:
Assay in all cases: Test C pre-/postemergence herbicide test
[1] = tested on: eastern black nightshade; type: in vivo, Solanum ptycanthum; details: for Nightshade plant response rating: Preemergence, scale 0 to 100, 0 no effect, 100 complete control
Source text: (§1) Seeds of plant species selected from bermudagrass (Cynodon dactylon (L.) Pers.), Surinam grass (Urochloa decumbens (Staph) R. D. Webster, previously named Brachiaria decumbens Stapf), cocklebur (Xanthium strumarium L.), corn (Zea mays L.), large crabgrass (Digitaria sanguinalis (L.) Scop.), woolly cupgrass (Eriochloa villosa (Thunb.) Kunth), giant foxtail (Setaria faberi Herrm.), goosegrass (Eleusine indica (L.) Gaertn.), johnsongrass (Sorghum halepense (L.) Pers.), kochia (Kochia scoparia (L.) Schrad.), lambsquarters (Chenopodium album L.), morningglory (Ipomoea coccinea L.), eastern black nightshade (Solanum ptycanthum Dunal), yellow nutsedge (Cyperus esculentus L.), pigweed (Amaranthus retroflexus L.), common ragweed (Ambrosia elatior L.), soybean (Glycine max (L.) Merr.), common (oilseed) sunflower (Helianthus annuus L.) and velvetleaf (Abutilon theophrasti Medik.) were planted and treated preemergence with test chemicals formulated in a non-phytotoxic solvent mixture which included a surfactant.
(§2) At the same time, plants selected from these crop and weed species and also winter barley (Hordeum vulgare L.), blackgrass (Alopecurus myosuroides Huds.), canarygrass (Phalaris minor Retz.), chickweed (Stellaria media (L.) Vill.), downy bromegrass (Bromus tectorum L.), green foxtail (Setaria viridis (L.) Beauv.), Italian ryegrass (Lolium multiflorum Lam.), wheat (Triticum aestivum L.), wild oat (Avenafatua L.) and windgrass (Apera spica-venti (L.) Beauv.) were treated with postemergence applications of some of the test chemicals formulated in the same manner. Plants ranged in height from 2 to 18 cm (1- to 4-leaf stage) for postemergence treatments. Plant species in the flooded paddy test consisted of rice (Oryza sativa), smallflower umbrella sedge (Cyperus difformis L.), ducksalad (Heteranthera limosa (Sw.) Willd.) and barnyardgrass (Echinochloa crus-galli (L.) Beauv.) grown to the 2-leaf stage for testing. Treated plants and controls were maintained in a greenhouse for 12 to 14 days, after which time all species were compared to controls and visually evaluated. Plant response ratings, summarized in Table C, are based on a scale of 0 to 100 where 0 is no effect and 100 is complete control. A dash (-) response means no test result.

[2] = tested on: yellow nutsedge; type: in vivo, Cyperus esculentus
Source text: as §1, §2

[3] = tested on: pigweed; type: in vivo, Amaranthus retroflexus
Source text: as §1, §2

[4] = 125 g ai/ha, scale 0 (no effect) to 100 (complete control), visual, 12 to 14 days, preemergence
[5] = Postemergence, 500 g ai/ha, scale 0 to 100
[6] = Postemergence, 250 g ai/ha, scale 0 to 100, 0 no effect, 100 complete control
[7] = Preemergence, 500 g ai/ha, scale 0 to 100, 0 no effect, 100 complete control
[8] = postemergence, 125 g ai/ha, scale 0 to 100
[9] = postemergence, 62 g ai/ha, scale 0 to 100
[10] = 62 g ai/ha, preemergence, scale 0 to 100
[11] = 250 g ai/ha, scale 0-100, preemergence
[12] = 500 g ai/ha, scale 0 to 100 (0 no effect, 100 complete control), visual, 12 to 14 days, preemergence
[13] = 31 g ai/ha, preemergence, scale 0 to 100
[14] = 250 g ai/ha, scale 0 to 100 (0 no effect, 100 complete control), visual, 12 to 14 days, preemergence

Row | SMILES | Plant response rating (0 = no effect, 100 = complete control), Nightshade ([1]; 62 g ai/ha, preemergence) | Plant response rating, Nightshade [1, 4] | Nightshade plant response rating ([1]; 500 g ai/ha) | Plant response rating (0 = no effect, 100 = complete control), Nutsedge, Yellow ([2]; 62 g ai/ha, preemergence) | Plant response rating, Nutsedge, Yellow [2, 4] | Nutsedge, Yellow plant response rating [2, 7] | Plant response rating (0 = no effect, 100 = complete control), Pigweed ([3]; 62 g ai/ha, preemergence) | Plant response rating, Pigweed [3, 4] | Pigweed plant response rating [3, 7] | Plant response rating, Nightshade [1, 10] | Plant response rating, Nightshade [1, 11] | Plant response rating, Nightshade [1, 12] | Plant response rating, Nutsedge, Yellow [2, 10] | Plant response rating, Nutsedge, Yellow [2, 11] | Plant response rating, Nutsedge, Yellow [2, 12] | Plant response rating, Pigweed [3, 10] | Plant response rating, Pigweed [3, 11] | Plant response rating, Pigweed [3, 12] | also measured
1 | CCn1nc(C(C)(C)C)cc1C(=O)Nc1cccc(C(C)=NO)c1 [Compound 108] | 100 | 100 | 100 | 50 | 70 | 80 | 100 | 100 | 100 | – | – | – | – | – | – | – | – | – | Nutsedge, Yellow plant response rating [2, 5]: 30; Plant response rating, Nutsedge, Yellow [2, 6]: 30; Plant response rating, Nutsedge, Yellow [2, 8]: 30; Plant response rating, Nutsedge, Yellow [2, 9]: 20; Pigweed plant response rating [3, 5]: 100; Plant response rating, Pigweed [3, 6]: 100; Plant response rating, Pigweed [3, 8]: 100; Plant response rating, Pigweed [3, 9]: 60
2 | CCc1nn(C(C)(C)CC)nc1C(=O)Nc1cccc(C(=O)N(C)C)c1 [Compound 372] | – | – | – | – | – | – | – | – | – | 85 | 100 | 100 | 5 | 40 | 85 | 85 | 100 | 100 | Plant response rating (0 = no effect, 100 = complete control), Nightshade ([1]; 125 g ai/ha, preemergence): 95; Plant response rating (0 = no effect, 100 = complete control), Nutsedge, Yellow ([2]; 125 g ai/ha, preemergence): 30; Plant response rating (0 = no effect, 100 = complete control), Pigweed ([3]; 125 g ai/ha, preemergence): 95
3 | CCC1=NN(C(C)(C)C)CC1C(=O)Nc1cc(C(=O)N2CCCC2)ccc1F (racemic) [Compound 341] | – | – | – | – | – | – | – | – | – | 50 | 100 | 100 | 0 | 30 | 60 | 95 | 100 | 100 | Plant response rating (0 = no effect, 100 = complete control), Nightshade ([1]; 125 g ai/ha, preemergence): 55; Plant response rating (0 = no effect, 100 = complete control), Nutsedge, Yellow ([2]; 125 g ai/ha, preemergence): 0; Plant response rating (0 = no effect, 100 = complete control), Pigweed ([3]; 125 g ai/ha, preemergence): 95
4 | CCNC(=O)c1cc(C)nc(NC(=O)c2cc(C(C)(C)C)nn2CC)c1 [Compound 149] | – | 80 | 95 | – | 0 | 0 | – | 100 | 100 | 80 | – | – | 0 | – | – | 20 | – | – | –
5 | CCn1nc(C(C)(C)C)cc1C(=O)Nc1cc(C(=O)N2CCCC2)ccc1F [Compound 242] | – | 100 | – | – | 0 | – | – | 100 | – | 100 | 100 | 100 | 0 | 15 | 25 | 100 | 100 | 100 | –
6 | CCN1N=C(C(C)(C)C)CC1C(=O)Nc1cc(C(=O)N2CCCC2)ccc1F (racemic) [Compound 309] | – | 80 | – | – | 30 | – | – | 100 | – | 70 | 100 | 100 | 5 | 45 | 60 | 80 | 100 | 100 | –
7 | CCCCn1nc(C(C)(C)C)cc1C(=O)Nc1cccc(C(=O)NCC)c1 [Compound 41] | 0 | 10 | – | 0 | 0 | – | 0 | 90 | – | – | – | – | – | – | – | – | – | – | Plant response rating, Nightshade [1, 13]: 0; Plant response rating, Nightshade [1, 14]: 90; Plant response rating, Nutsedge, Yellow [2, 13]: 0; Plant response rating, Nutsedge, Yellow [2, 14]: 0; Plant response rating, Pigweed [3, 13]: 0; Plant response rating, Pigweed [3, 14]: 100
8 | CCNC(=O)c1ccc(F)c(NC(=O)C2CN(C(C)(C)C)N=C2CC)c1 (centres unmarked) [Compound 336, 1-(1,1-dimethylethyl)-3-ethyl-N-[5-[(ethylamino)carbonyl]-2-fluorophenyl]-4,5-dihydro-1H-pyrazole-4-carboxamide] | – | – | – | – | – | – | – | – | – | – | – | – | – | – | – | – | – | – | pest or weed control at 62 g/ha ([1]; pre-emergence, 62 g ai/ha, preemergence, scale 0 to 100, read-out: Plant response rating, Nightshade): 85%; pest or weed control at 125 g/ha ([1]; pre-emergence, 125 g ai/ha, scale 0 (no effect) to 100 (complete control), visual, 12 to 14 days, read-out: Plant response rating, Nightshade): 95%; pest or weed control at 250 g/ha ([1]; pre-emergence, 250 g ai/ha, scale 0-100, read-out: Plant response rating, Nightshade): 100%; pest or weed control at 500 g/ha ([1]; pre-emergence, 500 g ai/ha, scale 0 to 100 (0 no effect, 100 complete control), visual, 12 to 14 days, read-out: Plant response rating, Nightshade): 100%; pest or weed control at 62 g/ha ([2]; Cyperus, pre-emergence, 62 g ai/ha, preemergence, scale 0 to 100, read-out: Plant response rating, Nutsedge, Yellow): 0%; pest or weed control at 125 g/ha ([2]; Cyperus, pre-emergence, 125 g ai/ha, scale 0 (no effect) to 100 (complete control), visual, 12 to 14 days, read-out: Plant response rating, Nutsedge, Yellow): 5%; pest or weed control at 250 g/ha ([2]; Cyperus, pre-emergence, 250 g ai/ha, scale 0-100, read-out: Plant response rating, Nutsedge, Yellow): 20%; pest or weed control at 500 g/ha ([2]; Cyperus, pre-emergence, 500 g ai/ha, scale 0 to 100 (0 no effect, 100 complete control), visual, 12 to 14 days, read-out: Plant response rating, Nutsedge, Yellow): 60%; pest or weed control at 62 g/ha ([3]; Amaranthus retroflexus, pre-emergence, 62 g ai/ha, preemergence, scale 0 to 100, read-out: Plant response rating, Pigweed): 100%; pest or weed control at 125 g/ha ([3]; Amaranthus retroflexus, pre-emergence, 125 g ai/ha, scale 0 (no effect) to 100 (complete control), visual, 12 to 14 days, read-out: Plant response rating, Pigweed): 100%; pest or weed control at 250 g/ha ([3]; Amaranthus retroflexus, pre-emergence, 250 g ai/ha, scale 0-100, read-out: Plant response rating, Pigweed): 100%; pest or weed control at 500 g/ha ([3]; Amaranthus retroflexus, pre-emergence, 500 g ai/ha, scale 0 to 100 (0 no effect, 100 complete control), visual, 12 to 14 days, read-out: Plant response rating, Pigweed): 100%
9 | CCN(CC)C(=O)c1cccc(NC(=O)c2cc(C(C)(C)C)nn2CC)n1 [Compound 145] | 60 | 70 | 90 | 0 | 0 | 0 | 85 | 90 | 95 | – | – | – | – | – | – | – | – | – | –
